Assay results published in patent US20250361284A1, “TRANSPOSASE FUSION PROTEINS FOR USE IN CELL AND GENE THERAPY” (JULIUS-MAXIMILIANS-UNIVERSITÄT WÜRZBURG, priority 2022, published 2025).

Legend:
[1] = system: K562/CD19 target cells; assay: Bioluminescence-based cytolytic activity of CD8+ CD19 CAR T cells; format: cell-based, human; settings: TMP 1000 nM
Method: (5C) Specific cytolytic activity of CD8+ CD19 CAR-T cells against K562/CD19 target cells. Cytolytic activity of CD8+ CD19-CAR T cells was evaluated by co-culture with K562/CD19 or K562 target cells using a bioluminescence-based assay. The assay was setup with effector T cells (CD8+ CD19-CAR T cells) at various effector/target (E:T) ratios in 96 well flat bottom plates. Luminescence intensities were recorded at specific time points (1, 3, 5, 24 hours) using a luminometer. Specific lysis was calculated using the standard formula. Data shown are from one representative experiment.
(5D) Specific cytolytic activity of CD8+ CD19 CAR-T cells engineered with dd-SB100X fusion transposase vs. wild type SB100X transposase. […] Data was analyzed by unpaired t-test.
Anonymous healthy donor blood samples were received upon written consent to participate in research protocols approved by the Institutional Review Board of the Universitätsklinikum Würzburg (UKW). Blood samples were processed for T cells isolation as published earlier (Querques et al., 2019). Briefly, Peripheral blood mononuclear cells (PBMCs) were isolated by density centrifugation with Biocoll separating solution (Biochrom). Both CD4+ and CD8+ T cells were sorted by negative isolation approach using microbeads and magnetic associated cell sorting (MACS, Miltenyi) methods as described by the manufacturer. […]

[2] = system: human CD4+ T cells; assay: Gene transfer (EGFRt+ T cells, flow cytometry) with degron-SB100X in CD4+ T cells; format: cell-based; settings: for gene transfer rate (EGFRt+ T cells): day 7 post-nucleofection, n=1
Method: (1E) Testing the activity of IKZF3 zinc finger-based degron-SB100X fusion-transposase in human CD4+ T cells. For each condition, 2 million CD3/CD28 activated CD4+ T cells were nucleofected with minicircle DNA encoding a CD19-CAR_EGFRt SB transposon, and plasmid DNA encoding either the wild type SB transposase (SB100X) or the SB fusion-transposase (degron-SB100X). Cells were cultured either in the presence of Pomalidomide (P; 10 μM) or DMSO (D) at the time of nucleofection. At 7 days post-nucleofection, flow cytometric analysis was performed to determine the percentage of T cells that expresses the EGFRt reporter that was encoded in cis with the CD19-CAR. Top panel: Dot plots showing EGFRt expression on day 7 post-nucleofection. Bottom panel: Bar graph showing the percentage of EGFRt+ T cells on day 7 post-nucleofection (n=1).
Anonymous healthy donor blood samples were received upon written consent to participate in research protocols approved by the Institutional Review Board of the Universitätsklinikum Würzburg (UKW). Blood samples were processed for T cells isolation as published earlier (Querques et al., 2019). Briefly, Peripheral blood mononuclear cells (PBMCs) were isolated by density centrifugation with Biocoll separating solution (Biochrom). Both CD4+ and CD8+ T cells were sorted by negative isolation approach using microbeads and magnetic associated cell sorting (MACS, Miltenyi) methods as described by the manufacturer. The isolated CD4+ and CD8+ T cells were cultured in T cell medium (RPMI-1640 with 10% (vol/vol) human serum, 2 mM L-glutamine, 100 U ml-1 penicillin-streptomycin) containing IL-2 (50 units per mL) and activated by anti-CD3/CD28 bead stimulation (Thermo Fisher). Two days post-activation, approximately 2 million T cells were nucleofected with vectors (1 μg of CD19 CAR (EGFRt)-encoding transposon as plasmid or minicircle DNA; 1 μg of mRNA encoding SB transposase) or 10 μg of hsSB protein (Querques et al., 2019) using a 4D Nucleofector (Lonza) as per the manufacturer's instructions. […]

`COc1cc(Cc2cnc(N)nc2N)cc(OC)c1OC` [TMP, trimethoprim] was tested, and the “effect of TMP treatment on subsequent function of CAR T cells” value [1] was “no adverse effects”.

In the case of `Nc1cccc2c1C(=O)N(C1CCC(=O)NC1=O)C2=O` (stereo not shown) [pomalidomide, reference compound], the “effect of pomalidomide on activity of wild type SB100X (lacking the degron tag)” value ([2]; pomalidomide 10 μM vs DMSO) is reported as “interfered with the activity of wild type SB100X”.

For “degron-SB100X: IKZF3 zinc finger degron tag fused via linker to N-terminus of SB100X transposase; SEQ ID NO: 3”, the “gene transfer rate (EGFRt+ T cells)” value ([2]; DMSO) was ~46.4% and the “gene transfer rate (EGFRt+ T cells)” value ([2]; pomalidomide 10 μM) was ~1.74%.
